One assay addresses T1, Aurora A (Homo sapiens, UniProt O14965).
T1 construct: histidine tag (N); made in house; host or cells: Escherichia coli BL21-CodonPlus(DE3)-RIL
T1 sequence (O14965 1-403): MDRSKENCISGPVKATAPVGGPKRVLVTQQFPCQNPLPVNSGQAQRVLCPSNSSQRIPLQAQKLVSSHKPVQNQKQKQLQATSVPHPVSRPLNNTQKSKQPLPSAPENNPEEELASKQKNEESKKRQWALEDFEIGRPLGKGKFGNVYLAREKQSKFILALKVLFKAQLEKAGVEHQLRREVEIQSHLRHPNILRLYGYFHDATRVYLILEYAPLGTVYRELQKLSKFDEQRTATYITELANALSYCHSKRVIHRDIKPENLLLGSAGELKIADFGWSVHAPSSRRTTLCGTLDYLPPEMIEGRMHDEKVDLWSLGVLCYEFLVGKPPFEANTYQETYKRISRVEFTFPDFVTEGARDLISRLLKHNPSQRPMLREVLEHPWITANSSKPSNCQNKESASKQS
The assay is described as follows: Aurora A inhibitory action (33P-ATP kinase assay, Kemptide substrate). Format: biochemical. Particulars: 20 μM ATP, 30° C., 20 minutes. From the text: Aurora A Inhibitory Action
(1) Purification of Aurora A
cDNA of Aurora A having histidine tag fused at the amino terminal was integrated into an expression vector, which was then highly expressed in Escherichia coli BL2 1-CodonPlus(DE3)-RIL cells. The Escherichia coli cells were recovered and solubilized, and then the histidine-tagged Aurora A protein was adsorbed onto a nickel chelate column and eluted from the column with imidazole. The active fraction was desalted with a desalting column to give a pure enzyme.
(2) Measurement of Activity of Aurora A
For measurement of the activity of Aurora A, the substrate used was Kemptide (Lys-Arg-Arg-Ala-Ser-Lys-Gly) (SEQ.ID.NO.: 1), a synthetic peptide purchased from Sigma-Aldrich, Inc. [Certificate of analysis (Upstate, Inc.)].
Reaction was conducted by a partial modification of a method by Upstate, Inc. [Kinase Profiler™ Assay Protocols]. The amount of the reaction liquid was 21.1 μL, and the composition of the reaction buffer (R2 buffer) was 50 mM Tris-hydrochloride buffer (pH 7.4)/15 mM magnesium acetate/0.2 mM ethylenediamine-N,N,N′,N′-tetraacetate (EDTA). To this, purified Aurora A, 100 μM of a substrate peptide, 20 μM of unlabeled adenosine triphosphate (ATP) and 0.5 μCi of [γ-^33P] labeled ATP (2,500 Ci/mmole or more) were added, and the mixture was reacted at 30° C. for 20 minutes. Then, 10 μL of 350 mM phosphate buffer was added to the reaction system to stop the reaction. The substrate peptide was adsorbed on a P81 paper filter 96-well plate and then washed with 130 mM phosphate buffer for several times. The radiation activity of the peptide was measured with a liquid scintillation counter. The [γ-^33P] labeled ATP was purchased from Amersham Biosciences Co., Ltd.
(§1) The compound to be tested was added to the reaction system such that a dilution series of the compound in dimethylsulfoxide was first prepared, and 1.1 μL of this solution was added. A control was provided by adding 1.1 μL of DMSO to the reaction system.

Another assay has as its target T2, Aurora B (Homo sapiens, UniProt Q96GD4).
T2 construct: histidine tag (N); made in house; host or cells: Escherichia coli BL21-CodonPlus(DE3)-RIL
The assay is described as follows: Aurora B inhibitory action (33P-ATP kinase assay, Kemptide substrate). Format: biochemical. Conditions: 100 μM ATP, 30° C., 20 minutes.
Source text: Aurora B Inhibitory Action
(1) Purification of Aurora B
cDNA of Aurora B having histidine tag fused at the amino terminal was integrated into an expression vector, which was then highly expressed in Escherichia coli BL21-CodonPlus(DE3)-RIL cells. The Escherichia coli cells were recovered and solubilized, and then the histidine-tagged […] protein was adsorbed onto a nickel chelate column and eluted from the column with imidazole. The active fraction was desalted with a desalting column to give a pure enzyme.
(2) Measurement of Activity of Aurora B
For measurement of the activity of Aurora B, the substrate used was Kemptide (Lys-Arg-Arg-Ala-Ser-Lys-Gly) (SEQ.ED.NO.: 1), a synthetic peptide purchased from Sigma-Aldrich, Inc. [Certificate of analysis (Upstate, Inc.)].
Reaction was conducted by a partial modification of the method of activity measurement for Aurora A. The amount of the reaction liquid was 21.1 μL, and the composition of the reaction buffer (R2 buffer) was 50 mM Tris-hydrochloride buffer (pH 7.4)/15 mM magnesium acetate/0.2 mM ethylenediamine-N,N,N′,N′-tetraacetate (EDTA). To this, purified Aurora B, 100 μM of a substrate peptide, 100 μM of unlabeled adenosine triphosphate (ATP) and 1 μCi of [γ-^33P] labeled ATP (2,500 Ci/mmole or more) were added, and the mixture was reacted at 30° C. for 20 minutes. Then, 10 μL of 350 mM phosphate buffer was added to the reaction system to stop the reaction. The substrate peptide was adsorbed on a P81 paper filter 96-well plate and then washed with 130 mM phosphate buffer for several times. The radiation activity of the peptide was measured with a liquid scintillation counter. The [γ-^33P] labeled ATP was purchased from Amersham Biosciences Co., Ltd.
as §1

Structures can show the parent of a compound that is named as a salt.

T2 sequence (Q96GD4 whole entry): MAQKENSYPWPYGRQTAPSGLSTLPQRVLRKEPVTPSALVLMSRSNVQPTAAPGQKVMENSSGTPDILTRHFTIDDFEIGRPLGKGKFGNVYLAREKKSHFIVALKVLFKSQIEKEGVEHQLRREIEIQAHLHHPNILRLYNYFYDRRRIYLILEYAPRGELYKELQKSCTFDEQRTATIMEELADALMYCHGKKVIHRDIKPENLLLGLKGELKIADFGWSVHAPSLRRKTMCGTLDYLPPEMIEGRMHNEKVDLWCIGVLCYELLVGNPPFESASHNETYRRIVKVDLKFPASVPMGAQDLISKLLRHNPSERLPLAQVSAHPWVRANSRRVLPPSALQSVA

As a reminder, the IC50 is the concentration that inhibits the measured activity by half. Read a high IC50 as weaker potency in that assay. `N#Cc1cnc(Nc2cccc(CN3CCN(C(=O)c4cccc(Cl)c4F)CC3)n2)s1` [Example 43]: the IC50 against Aurora A worked out at 1.1 nM; on Aurora B it was 460 nM.

Consider `O=C(c1cccc(Cl)c1F)N1CCN(Cc2cc(N3CCOC3=O)cc(Nc3nccs3)n2)CC1` [Example 97, 3-(2-((4-(3-chloro-2-fluorobenzoyl)piperazin-1-yl)methyl)-6-(thiazol-2-ylamino)pyridin-4-yl)-1,3-oxazolidin-2-one], for which the figures for the IC50 against Aurora A and on Aurora B were 0.62 nM and 830 nM, respectively.

As to `CS(=O)(=O)Cc1cc(CN2CCN(C(=O)c3cccc(Cl)c3F)CC2)nc(Nc2nccs2)c1` [Example 93, 6-((4-(3-chloro-2-fluorobenzoyl)piperazin-1-yl)methyl)-4-((methanesulfonyl)methyl)-N-thiazol-2-ylpyridin-2-amine], the IC50 stood at 0.36 nM on Aurora A and 250 nM against Aurora B.

As for `O=C(c1cccc(C(F)F)c1F)N1CCN(Cc2cccc(Nc3nccs3)n2)CC1` [Example 15, 6-((4-(3-(difluoromethyl)-2-fluorobenzoyl)piperazin-1-yl)methyl)-N-thiazol-2-ylpyridin-2-amine], the values for the IC50 at Aurora A and at Aurora B were 1.4 nM and 1000 nM, respectively.

As to `NC(=O)c1cc(CN2CCN(C(=O)c3cccc(Cl)c3F)CC2)nc(Nc2nccs2)c1` [Example 87, 2-((4-(3-chloro-2-fluorobenzoyl)piperazin-1-yl)methyl)-6-(thiazol-2-ylamino)isonicotinamide trifluoroacetate], the figures for the IC50 at Aurora A and at Aurora B were 1.2 nM and 1400 nM, respectively.

On to `O=C(c1cccc(Cl)c1F)N1CCN(Cc2cccc(Nc3ncns3)n2)CC1` [Example 32, 6-((4-(3-chloro-2-fluorobenzoyl)piperazin-1-yl)methyl)-N-1,2,4-thiadiazol-5-ylpyridin-2-amine], for which the IC50 against Aurora A worked out at 3.7 nM; against Aurora B, 4800 nM.

With `O=C(c1cccc(C(F)(F)F)c1F)N1C[C@@H]2C[C@H]1CN2Cc1cncc(Nc2cc[nH]n2)n1` [Example 47, 6-(((lS,4S)-5-(2-fluoro-3-(trifluoromethyl)benzoyl)-2,5-diazabicyclo[2.2.1]hept-2-yl)methyl)-N-1H-pyrazol-3-ylpyrazin-2-amine], the IC50 against Aurora A was determined as 5.5 nM; against Aurora B, 2200 nM.

With `O=C(c1cccc(C(F)(F)F)c1Cl)N1CCN(Cc2cccc(Nc3cc[nH]n3)n2)CC1` [Example 18, 6-((4-(2-chloro-3-(trifluoromethyl)benzoyl)piperazin-1-yl)methyl)-N-1H-pyrazol-3-ylpyridin-2-amine trifluoroacetate], the IC50 worked out at 1.8 nM against Aurora A and 830 nM at Aurora B.

For the compound `Cc1cc(Nc2cccc(CN3CCN(C(=O)c4cccc(Cl)c4Cl)CC3)n2)n[nH]1` [Example 26, 6-((4-(2,3-dichlorobenzoyl)piperazin-1-yl)methyl)-N-(5-methyl-1H-pyrazol-3-yl)pyridin-2-amine trifluoroacetate], the IC50 worked out at 1.1 nM on Aurora A and 450 nM against Aurora B.

Turning to `O=C(c1cccc(Cl)c1Cl)N1CCN(Cc2cncc(Nc3cc[nH]n3)n2)CC1` [Example 45, 6-((4-(2,3-dichlorobenzoyl)piperazin-1-yl)methyl)-N-1H-pyrazol-3-ylpyrazin-2-amine], the values for the IC50 against Aurora A and on Aurora B were 2.5 nM and 4800 nM, respectively.

As for `O=C(c1cccc(C(F)(F)F)c1F)N1CCN(Cc2cccc(Nc3nccs3)n2)CC1` [Example 13, 6-((4-(2-fluoro-3-(trifluoromethyl)benzoyl)piperazin-1-yl)methyl)-N-thiazol-2-ylpyridin-2-amine trifluoroacetate], the IC50 at Aurora A is 0.89 nM; at Aurora B it was 380 nM.

As to `O=C(c1cccc(Br)c1)N1CCN(Cc2cccc(Nc3ncns3)n2)CC1` [Example 38, 6-((4-(3-bromobenzoyl)piperazin-1-yl)methyl)-N-1,2,4-thiadiazol-5-ylpyridin-2-amine], the values for the IC50 on Aurora A and on Aurora B were 9.1 nM and 9500 nM, respectively.

As for `O=C(c1cccc(Cl)c1F)N1CCCN(Cc2cccc(Nc3nccs3)n2)CC1` [Example 63, 6-((4-(3-chloro-2-fluorobenzoyl)-1,4-diazepan-1-yl)methyl)-N-thiazol-2-ylpyridin-2-amine], the values for the IC50 against Aurora A and against Aurora B were 1.3 nM and 570 nM, respectively.

Regarding `O=C(c1ccccc1)N1CCN(Cc2cccc(Nc3cc(C4CC4)[nH]n3)n2)CC1` [Example 31, 6-((4-benzoylpiperazin-1-yl)methyl)-N-(5-cyclopropyl-1H-pyrazol-3-yl)pyridin-2-amine], the values for the IC50 on Aurora A and against Aurora B were 37 nM and 760 nM, respectively.

Take `CN1CCN(c2cc(CN3CCN(C(=O)c4cccc(Cl)c4F)CC3)nc(Nc3nccs3)c2)C1=O` [Example 98, 3-(2-((4-(3-chloro-2-fluorobenzoyl)piperazin-1-yl)methyl)-6-(thiazol-2-ylamino)pyridin-4-yl)-3-methylimidazolidin-2-one]: the IC50 at Aurora A amounted to 0.36 nM; on Aurora B, 230 nM.

As to `O=C(c1cccc(Cl)c1F)N1CCN(Cc2cc(Cn3nccn3)cc(Nc3nccs3)n2)CC1` [Example 91, 6-((4-(3-chloro-2-fluorobenzoyl)piperazin-1-yl)methyl)-N-thiazol-2-yl-4-(2H-1,2,3-triazol-2-ylmethyl)pyridin-2-amine trifluoroacetate], the 50% inhibitory concentration (IC50) at Aurora A was 1.4 nM; at Aurora B it was 1200 nM.

In the case of `Cc1cnc(Nc2cccc(CN3CCN(C(=O)c4cccc(Cl)c4F)CC3)n2)s1` [Example 42, 6-((4-(3-chloro-2-fluorobenzoyl)piperazin-1-yl)methyl)-N-(5-methyl-thiazol-2-yl)pyridin-2-amine trifluoroacetate], the IC50 against Aurora A was determined as 1 nM; against Aurora B, 530 nM.

As for `O=C(c1cccc(F)c1F)N1CCN(Cc2cc(NCC(F)F)cc(Nc3nccs3)n2)CC1` [Example 100, 6-((4-(2,3-difluorobenzoyl)piperazin-1-yl)methyl)-N4-(2,2-difluoroethyl)-N^2-thiazol-2-ylpyridine-2,4-diamine], the IC50 against Aurora A was 2.6 nM; on Aurora B it was 1300 nM.

On to `O=C(c1cc(CN2CCN(C(=O)c3cccc(Cl)c3F)CC2)nc(Nc2nccs2)c1)N1CCCC1` [Example 84, 6-((4-(3-chloro-2-fluorobenzoyl)piperazin-1-yl)methyl)-4-(pyrrolidin 1-ylcarbonyl)-N-thiazol-2-ylpyridin-2-amine trifluoroacetate], for which the concentration for half-maximal inhibition (IC50) worked out at 0.72 nM against Aurora A and 400 nM on Aurora B.

As to `O=C(c1ccsc1)N1CCN(Cc2cccc(Nc3ncc(Cl)s3)n2)CC1` [Example 65, 6-((4-(3-thienylcarbonyl)piperazin-1-yl)methyl)-N-(5-chlorothiazol-2-yl)pyridin-2-amine], the IC50 on Aurora A was 2.4 nM; at Aurora B, 160 nM.

For `O=C(c1cccc(C(F)F)c1F)N1CCN(Cc2cccc(Nc3ncns3)n2)CC1` [Example 41, 6-((4-(2-fluoro-3-(difluoromethyl)benzoyl)piperazin-1-yl)methyl)-N-1,2,4-thiadiazol-5-ylpyridin-2-amine trifluoroacetate], the half-inhibitory concentration (IC50) at Aurora A turned out to be 2.9 nM; against Aurora B, 5000 nM.

These data come from patent US20080027042A1, “Novel Aminopyridine Derivatives Having Aurora a Selective Inhibitory Action” (priority 2004, published 2008).
